What was measured:
[1] = Effect of varying daily oral doses of 1-n-decyl pyrazolidin-3-one on rat bodyweight; assay type: in vivo, Male Sprague-Dawley rats; details: for Percent Change from Initial Bodyweight (Mean ± S.E.M.) Day 5: Day 5, rats approx. 575 grams; for Percent Change from Initial Bodyweight (Mean ± S.E.M.) Day 10: Day 10, rats approx. 575 grams
Protocol: Male Sprague-Dawley rats were acclimatized to laboratory conditions for approximately four weeks prior to the experiment being carried out. The rats were maintained on a 12 hr/12 hr light dark cycle and had continuous access to food and water. Rats weighing approx. 575 grams were housed 4 to a cage and each rat treated daily with an oral injection of either saline vechicle or one of three doses of 1-n-decylpyrazolidinone dissolved in saline vehicle. The saline vehicle was prepared fresh each day.

[2] = Effect of pyrazolidinones on bodyweight of rats (single oral dose); assay type: in vivo; details: 0.22 m moles/kilogram bodyweight, two days after administration
Protocol: The compound of formula (I) prepared by the methods described in Examples 1 and 2 were administered orally to rats at a dose corresponding to 0.22 m moles/kilogram bodyweight. Two days after administration the weight of the treated rats was compared with control and the difference expressed as a percentage of the weight of the control animals.

LD50's in mice = details: mouse, in vivo, ip; i.p. administration to mice
Protocol: The LD50's of compounds of formula were determined by conventional techniques by i.p. administration to mice.

[3] = Effect of 1-n-decyl pyrazolidin-3-one on rat bodyweight and food consumption; assay type: in vivo, Male Sprague-Dawley rats
Protocol: Male Sprague-Dawley rats were acclimatized as described in Example 6. The Rats (approx. 300 grams) were housed individually to present measurement of food consumption as well as bodyweight. Animals were treated once daily by oral […] guage either with saline or with 1-n-decyl pyrazolidin-3-one (25 mg/kg) in saline vehicle. Measurement of bodyweight and food consumption was […] during the recovery days, when treatment with drug has stopped.

**Q.** Which “Percent Change from Initial Bodyweight (Mean ± S.E.M.) Day 5” value (from here on “Percent Change … (Mean ± S.E.M.) Day 5”) ([1]; 10 mg/kg p.o. daily) does the source give for CCCCCCCCCCN1CCC(=O)N1.Cl [n-decyl, 1-(n-decyl)-3-pyrazolidone hydrochloride] here?
**A.** The value was -2.7 ± 0.3%.

**Q.** And the “Percent Change from Initial Bodyweight (Mean ± S.E.M.) Day 10” value (shortened to “Percent Change … (Mean ± S.E.M.) Day 10”) ([1]; 10 mg/kg p.o. daily)?
**A.** The value was -1.1 ± 0.4%.

**Q.** What about the “Percent Change … (Mean ± S.E.M.) Day 5” value ([1]; 15 mg/kg p.o. daily) of the same compound?
**A.** The value was -3.3 ± 1.0%.

**Q.** What about the “Percent Change … (Mean ± S.E.M.) Day 10” value ([1]; 15 mg/kg p.o. daily) of the same compound?
**A.** Its value is -9.6 ± 1.7%.

**Q.** What about the “Percent Change … (Mean ± S.E.M.) Day 5” value ([1]; 20 mg/kg p.o. daily) of the same compound?
**A.** The value was -3.8 ± 0.6%.

**Q.** What about the “Percent Change … (Mean ± S.E.M.) Day 10” value ([1]; 20 mg/kg p.o. daily) of the same compound?
**A.** The value was -11.1 ± 1.8%.

**Q.** And the “% weight deviation from control” value [2]?
**A.** Its value is -10.9%.

**Q.** What about the LD50 (LD50's in mice) of the same compound?
**A.** Its LD50 is 500 mg/kg.

**Q.** And the “Percent change in amount of food consumed (Mean ± S.E.M.)” value (“Percent change in amount” for short) ([3]; 25 mg/kg p.o. once daily, Treatment Day 2)?
**A.** Its value is -1 ±6%.

**Q.** What about the “Percent change in amount” value ([3]; after 25 mg/kg p.o. once daily, Recovery Day 2 (treatment stopped)) of the same compound?
**A.** The value was -8 ±7%.

**Q.** And the “Percent change in amount” value ([3]; after 25 mg/kg p.o. once daily, Recovery Day 3 (treatment stopped))?
**A.** The value was “+13 ±8%”.

**Q.** With CCCCCCCCCN1CCC(=O)N1.Cl [n-nonyl, 1-(n-nonyl)-3-pyrazolidone hydrochloride] as the compound, how does the LD50 (LD50's in mice) read?
**A.** Its LD50 is 210 mg/kg.

**Q.** For CCCCCCCCCCCN1CCC(=O)N1.Cl [n-undecyl, 1-(n-undecyl)-3-pyrazolidone hydrochloride], which LD50 (LD50's in mice) is on record?
**A.** The LD50 was 350 mg/kg.

**Q.** Which LD50 (LD50's in mice) does the source give for CCCCCCCCN1CCC(=O)N1.Cl [n-octyl, 1-(n-octyl)-3-pyrazolidone hydrochloride] here?
**A.** The LD50 was 250 mg/kg.

**Q.** With CCCCCCCCCCCCCCN1CCC(=O)N1.Cl [CH3(CH2)13-, 1-(n-tetradecyl)-3-pyrazolidone hydrochloride] as the compound, how does the LD50 (LD50's in mice) read?
**A.** The LD50 was 350 mg/kg.

Reference: patent publication EP0035270A2, “Heterocyclic compounds, compositions thereof, their preparation and use” (THE WELLCOME FOUNDATION LIMITED, priority 1980, dated 1981)
